# Experimental data reported in patent publication US10174016B2 (BAYER AKTIENGESELLSCHAFT, priority 2014, dated 2019).
# Like-named read-outs stand apart in the source and are kept apart here.
# What was measured:
# [1] = target: human P2X3 receptor (Homo sapiens (Human), UniProt P56373); assay: Intracellular calcium measurement (FLIPR, Fluo-4) of antagonist activity at human P2X3 receptors; type: cell-based; conditions: read-out: hP2X3 IC50
# Procedure, shortened: (§1)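 Cells expressing human P2X3 or P2X2/3, loaded with Fluo-4, preincubated 30 min at 37° C. with compound (1% DMSO final), then challenged with α,β-Me-ATP at its EC80. Peak FLIPR fluorescence over 90 sec gave % response; IC50, maximal inhibition and Hill slope from triplicates.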
# [2] = target: human P2X2/3 receptor (Homo sapiens (Human), UniProt P56373+Q9UBL9); assay: Intracellular calcium measurement (FLIPR, Fluo-4) of antagonist activity at human P2X2/3 receptors; type: cell-based
# Sequence of human P2X2/3 receptor (P56373 whole entry): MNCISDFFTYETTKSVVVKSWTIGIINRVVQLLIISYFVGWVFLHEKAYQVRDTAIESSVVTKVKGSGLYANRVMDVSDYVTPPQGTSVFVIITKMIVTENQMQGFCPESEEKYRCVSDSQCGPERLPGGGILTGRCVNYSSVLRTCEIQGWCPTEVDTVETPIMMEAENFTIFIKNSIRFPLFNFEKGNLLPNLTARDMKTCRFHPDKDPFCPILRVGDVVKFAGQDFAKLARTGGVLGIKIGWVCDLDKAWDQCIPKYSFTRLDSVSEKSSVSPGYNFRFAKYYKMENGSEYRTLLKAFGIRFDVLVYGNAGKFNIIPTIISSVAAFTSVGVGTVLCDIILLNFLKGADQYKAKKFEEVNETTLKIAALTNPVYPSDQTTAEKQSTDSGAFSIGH
# Sequence of human P2X2/3 receptor (Q9UBL9 whole entry): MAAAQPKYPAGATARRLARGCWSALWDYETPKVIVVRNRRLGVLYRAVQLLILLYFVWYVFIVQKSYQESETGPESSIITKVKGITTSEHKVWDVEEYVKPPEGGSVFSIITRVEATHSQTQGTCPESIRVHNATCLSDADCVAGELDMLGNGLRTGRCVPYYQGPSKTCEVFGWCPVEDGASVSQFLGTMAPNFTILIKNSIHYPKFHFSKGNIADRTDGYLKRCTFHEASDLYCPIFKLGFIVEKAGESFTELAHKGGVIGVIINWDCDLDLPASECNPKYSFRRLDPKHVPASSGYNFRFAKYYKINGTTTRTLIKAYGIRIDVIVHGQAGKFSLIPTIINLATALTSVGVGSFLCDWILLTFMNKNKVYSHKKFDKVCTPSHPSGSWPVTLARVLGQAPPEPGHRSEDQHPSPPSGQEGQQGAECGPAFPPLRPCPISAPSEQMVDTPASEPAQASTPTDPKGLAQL
# Procedure, shortened: as §1
# [3] = human P2X2/3, FLIPR calcium assay, agonist α,β-Me-ATP, read-out: hP2X2/3 IC50
# [4] = human P2X3, FLIPR calcium assay, agonist α,β-Me-ATP
# Sequence of human P2X3 receptor (P56373 whole entry): as the sequence (P56373 whole entry) above
SMILES,"IC50 [2, 3]","IC50 [1, 4]",IC50 [1],IC50 ([2]; hP2X2/3 IC50 (nM))
"Cc1cnc(-c2cc(OC[C@H]3COCCN3C)cc(C(=O)N[C@H](C)c3ccc(C(F)(F)F)nc3)c2)s1 [Example 363, 3-{[(3R)-4-methylmorpholin-3-yl]methoxy}-5-(5-methyl-1,3-thiazol-2-yl)-N-{(1R)-1-[6-(trifluoromethyl)pyridin-3-yl]ethyl}benzamide]",717 nM,,12 nM,
"Cc1cnc(-c2cc(O[C@@H]3CCOC3)cc(C(=O)N[C@H](C)c3ccc(Cl)cn3)c2)s1 [Example 15, N-[(1R)-1-(5-chloropyridin-2-yl)ethyl]-3-(5-methyl-1,3-thiazol-2-yl)-5-[(3R)-tetrahydrofuran-3-yloxy]benzamide]",147 nM,6 nM,,
"Cc1cnc(-c2cc(OC[C@H]3COCC(=O)N3)cc(C(=O)N[C@H](C)c3cnc(C(F)(F)F)nc3)c2)s1 [Example 396, 3-(5-methyl-1,3-thiazol-2-yl)-5-{[(3R)-5-oxomorpholin-3-yl]methoxy}-N-{(1R)-1-[2-(trifluoromethyl)pyrimidin-5-yl]ethyl}benzamide]",1800 nM,22 nM,,
"Cc1cnc(-c2cc(OC3CCN(C(=O)OC(C)(C)C)CC3)cc(C(=O)N[C@H](C)c3cnc(C(F)(F)F)nc3)c2)s1 [Example 137, tert-Butyl 4-[3-(5-methyl-1,3-thiazol-2-yl)-5-({(1R)-1-[2-(trifluoromethyl)pyrimidin-5-yl]ethyl}carbamoyl)phenoxy]piperidine-1-carboxylate]",328 nM,,26 nM,
"Cc1cnc(-c2cc(OC3COC3)cc(C(=O)NCc3ccc(C(F)(F)F)nn3)c2)s1 [Example 52, 3-(5-methyl-1,3-thiazol-2-yl)-5-(oxetan-3-yloxy)-N-{[6-(trifluoromethyl)pyridazin-3-yl]methyl}benzamide]",564 nM,194 nM,,
"Cc1cnc(-c2cc(O[C@@H]3CCOC3)cc(C(=O)N[C@H](C)c3nnc(C)s3)c2)s1 [Example 20, N-[(1R)-1-(5-methyl-1,3,4-thiadiazol-2-yl)ethyl]-3-(5-methyl-1,3-thiazol-2-yl)-5-[(3R)-tetrahydrofuran-3-yloxy]benzamide]",486 nM,35 nM,,
"Cc1cnc(CNC(=O)c2cc(OC[C@H]3CCOC3)cc(-c3ncc(C)s3)c2)cn1 [Example 67, N-[(5-Methylpyrazin-2-yl)methyl]-3-(5-methyl-1,3-thiazol-2-yl)-5-[(3S)-tetrahydrofuran-3-ylmethoxy]benzamide]",≥ 10000 nM,186 nM,,
"COc1ccc(CNC(=O)c2cc(OC3CCOCC3)cc(-c3ncc(C)s3)c2)nn1 [Example 88, N-[(6-Methoxypyridazin-3-yl)methyl]-3-(5-methyl-1,3-thiazol-2-yl)-5-(tetrahydro-2H-pyran-4-yloxy)benzamide]",217 nM,30 nM,,
"Cc1ccc([C@@H](C)NC(=O)c2cc(OC[C@H]3CCOC3)cc(-c3ncc(C)s3)c2)nn1 [Example 71, N-[(1R)-1-(6-Methylpyridazin-3-yl)ethyl]-3-(5-methyl-1,3-thiazol-2-yl)-5-[(3S)-tetrahydrofuran-3-ylmethoxy]benzamide]",315 nM,15 nM,,
Cc1cnc(-c2cc(OC[C@@H]3COCCN3C)cc(C(=O)N[C@H](C)c3cnc(C(F)(F)F)nc3)c2)s1 [Example 362],1010 nM,8 nM,,
Cc1cnc(-c2cc(OC34CCN(CC3)CC4)cc(C(=O)N[C@H](C)c3cnc(C(F)(F)F)nc3)c2)s1 [Example 149],936 nM,21 nM,,
"CCc1cnc(-c2cc(O[C@H]3CN4CCC3CC4)cc(C(=O)N[C@H](C)c3cnc(C(F)(F)F)nc3)c2)s1 [Example 174, 3-[(3R)-1-azabicyclo[2.2.2]oct-3-yloxy]-5-(5-ethyl-1,3-thiazol-2-yl)-N-{(1R)-1-[2-(trifluoromethyl)pyrimidin-5-yl]ethyl}benzamide]",,,11 nM,790 nM

# Now from value to compound, other results behind:
"IC50 [2, 3]","IC50 [1, 4]",SMILES,IC50 [1],IC50 ([2]; hP2X2/3 IC50 (nM))
956 nM,9 nM,"Cc1cnc(-c2cc(OC[C@]3(F)CCCNC3)cc(C(=O)NC(C)c3cnc(C(F)(F)F)nc3)c2)s1 (single isomer, unassigned) [Example 355]",,
≥ 10000 nM,597 nM,"Cc1cnc(-c2cc(OC[C@H]3CNCCO3)cc(C(=O)N[C@@H](C)c3cnc(C(F)(F)F)nc3)c2)s1 [Example 413, 3-(5-methyl-1,3-thiazol-2-yl)-5-[(2R)-morpholin-2-ylmethoxy]-N-{(1S)-1-[2-(trifluoromethyl)pyrimidin-5-yl]ethyl}benzamide]",,
411 nM,25 nM,"C[C@@H](NC(=O)c1cc(OC[C@H]2CCOC2)cc(-c2ncc(Cl)s2)c1)c1cnc(C(F)(F)F)nc1 [Example 323, 3-(5-chloro-1,3-thiazol-2-yl)-5-[(3S)-tetrahydrofuran-3-ylmethoxy]-N-{(1R)-1-[2-(trifluoromethyl)pyrimidin-5-yl]ethyl}benzamide]",,
33 nM,3 nM,"CCc1cnc(-c2cc(OC3CCOCC3)cc(C(=O)N[C@H](C)c3cnc(C(F)(F)F)nc3)c2)s1 [Example 129, 3-(5-Ethyl-1,3-thiazol-2-yl)-5-(tetrahydro-2H-pyran-4-yloxy)-N-{(1R)-1-[2-(trifluoromethyl)pyrimidin-5-yl]ethyl}benzamide]",,
759 nM,13 nM,"Cc1cnc(-c2cc(OC3CCS(=O)(=O)CC3)cc(C(=O)N[C@H](C)c3cnc(C(F)(F)F)nc3)c2)s1 [Example 232, 3-[(1,1-dioxidotetrahydro-2H-thiopyran-4-yl)oxy]-5-(5-methyl-1,3-thiazol-2-yl)-N-{(1R)-1-[2-(trifluoromethyl)pyrimidin-5-yl]ethyl}benzamide]",,
1030 nM,24 nM,"COC(=O)N1CCO[C@H](COc2cc(C(=O)N[C@H](C)c3cnc(C(F)(F)F)nc3)cc(-c3ncc(C)s3)c2)C1 [Example 393, methyl (2S)-2-{[3-(5-methyl-1,3-thiazol-2-yl)-5-({(1R)-1-[2-(trifluoromethyl)pyrimidin-5-yl]ethyl}carbamoyl)phenoxy]methyl}morpholine-4-carboxylate]",,
235 nM,26 nM,"Cc1ccc([C@@H](C)NC(=O)c2cc(OC3CCOCC3)cc(-c3ncc(Cl)s3)c2)nn1 [Example 325, 3-(5-chloro-1,3-thiazol-2-yl)-N-[(1R)-1-(6-methylpyridazin-3-yl)ethyl]-5-(tetrahydro-2H-pyran-4-yloxy)benzamide]",,
190 nM,24 nM,"Cc1ccc(CNC(=O)c2cc(OCC3CCOCC3)cc(-c3ncc(C4CCC4)s3)c2)nn1 [Example 119, 3-(5-Cyclobutyl-1,3-thiazol-2-yl)-N-[(6-methylpyridazin-3-yl)methyl]-5-(tetrahydro-2H-pyran-4-ylmethoxy)benzamide]",,
273 nM,5 nM,"CCc1cnc(-c2cc(OC[C@H]3CN(C)CCO3)cc(C(=O)N[C@H](C)c3cnc(C(F)(F)F)nc3)c2)s1 [Example 377, 3-(5-ethyl-1,3-thiazol-2-yl)-5-{[(2R)-4-methylmorpholin-2-yl]methoxy}-N-{(1R)-1-[2-(trifluoromethyl)pyrimidin-5-yl]ethyl}benzamide]",,
710 nM,111 nM,"CC[C@@H](NC(=O)c1cc(OC2CCOCC2)cc(-c2ncc(C)s2)c1)c1cnc(C(F)(F)F)nc1 [Example 90, 3-(5-Methyl-1,3-thiazol-2-yl)-5-(tetrahydro-2H-pyran-4-yloxy)-N-{(1R)-1-[2-(trifluoromethyl)pyrimidin-5-yl]propyl}benzamide]",,
210 nM,15 nM,"Cc1cnc(-c2cc(O[C@H]3CCOC3)cc(C(=O)NC(C)c3ncc(Cl)cc3F)c2)s1 (stereo partly drawn) [Example 134, N-[1-(5-Chloro-3-fluoropyridin-2-yl)ethyl]-3-(5-methyl-1,3-thiazol-2-yl)-5-[(3S)-tetrahydrofuran-3-yloxy]benzamide]",,
≥ 10000 nM,825 nM,"C#CCOc1cc(C(=O)N[C@@H](C)c2cnc(C(F)(F)F)nc2)cc(-c2ncc(C)s2)c1 [Example 144, 3-(5-Methyl-1,3-thiazol-2-yl)-5-(prop-2-yn-1-yloxy)-N-{(1S)-1-[2-(trifluoromethyl)pyrimidin-5-yl]ethyl}benzamide]",,
1690 nM,15 nM,"Cc1cnc(CNC(=O)c2cc(OCC3CCOCC3)cc(-c3ncc(C)s3)c2)cn1 [Example 97, N-[(5-Methylpyrazin-2-yl)methyl]-3-(5-methyl-1,3-thiazol-2-yl)-5-(tetrahydro-2H-pyran-4-ylmethoxy)benzamide]",,
44 nM,9 nM,"Cc1ccc([C@@H](C)NC(=O)c2cc(OC3CCN(CC(F)F)CC3)cc(-c3ncc(C)s3)c2)nn1 [Example 305, 3-{[1-(2,2-difluoroethyl)piperidin-4-yl]oxy}-N-[(1R)-1-(6-methylpyridazin-3-yl)ethyl]-5-(5-methyl-1,3-thiazol-2-yl)benzamide]",,
378 nM,21 nM,"C[C@@H](NC(=O)c1cc(OC2CCOCC2)cc(-c2ncc(Cl)s2)c1)c1ccc(C(F)(F)F)nn1 [Example 326, 3-(5-chloro-1,3-thiazol-2-yl)-5-(tetrahydro-2H-pyran-4-yloxy)-N-{(1R)-1-[6-(trifluoromethyl)pyridazin-3-yl]ethyl}benzamide]",,
132 nM,6 nM,"Cc1cnc(-c2cc(O[C@@H]3CCOC3)cc(C(=O)N[C@H](C)c3cnc(C(F)(F)F)cn3)c2)s1 [Example 147, 3-(5-methyl-1,3-thiazol-2-yl)-5-[(3R)-tetrahydrofuran-3-yloxy]-N-{(1R)-1-[5-(trifluoromethyl)pyrazin-2-yl]ethyl}benzamide]",,
385 nM,8 nM,"Cc1ccc(CNC(=O)c2cc(OCC3CCOCC3)cc(-c3ncc(C)s3)c2)nn1 [Example 93, N-[(6-Methylpyridazin-3-yl)methyl]-3-(5-methyl-1,3-thiazol-2-yl)-5-(tetrahydro-2H-pyran-4-ylmethoxy)benzamide]",,
